Patent US20250333745A1, “METHODS AND COMPOSITIONS FOR TREATMENT OF POLYCYSTIC KIDNEY DISEASE” (Regulus Therapeutics Inc., priority 2016, published 2025)

Legend:
Pkd2-KO mice = test: Previous study of tool anti-miR-17 in Pkd2-KO mice; type: in vivo, mouse; details: 20 mg/kg
Method: Previous studies using a research tool anti-miR-17 compound identified a role for miR-17 in PKD in two different models of PKD, the Pkd2-KO model (also known as the Pkhd1/cre; Pkd2^F/F model) and the Pcy model. The research tool modified oligonucleotide complementary to miR-17 was tested in mouse models of PKD. The anti-miR-17 compound was a fully phosphorothioated oligonucleotide 19 linked nucleosides in length (5′-CTGCACTGTAAGCACTTTG-3′; SEQ ID NO: 7), with DNA, 2′-MOE and S-cEt sugar moieties.
Pkd2-KO mice spontaneously develop polycystic kidney disease. Mice were treated with 20 mg/kg of tool anti-miR-17 compound or control oligonucleotide, or with PBS.

[1] = In vitro metabolic stability in human liver lysate; type: in vitro ADME; details: 24-hour incubation of RG4326
Method: (§1) Due to their reduced capacity for serum protein binding, which is a property that drives oligonucleotide distribution in the body, short oligonucleotides are not necessarily expected to have pharmacokinetic properties that make them suitable for use as drugs. RG4326 was incubated in mouse, monkey or human liver homogenate. The identity and concentration of RG4326 and metabolites was determined after a 24-hour incubation. RG4326 and metabolites were extracted using liquid-liquid extraction (LLE) and/or solid-phase extraction (SPE), which were then analyzed for identity and concentration using ion-pairing-reversed-phase high performance liquid chromatography coupled with time-of-flight mass spectrometry (IP—RP-HPLC-TOF).

[2] = In vitro metabolic stability in monkey liver lysate; type: in vitro ADME; details: 24-hour incubation of RG4326
Method: as §1

miR-17 targets = test: De-repression of miR-17 targets in kidney cell types (PD Signature Score); type: cell-based, mouse
Method: The ability of RG4326 to de-repress miR-17 targets was also evaluated in additional kidney cell types, derived from the kidneys of both normal and PKD mice. Cells were treated with 30 nM of RG4326 or control oligonucleotide RG5124. After a 24-hour transfection period, cells were collected and RNA was extracted. The mRNA levels of 18 genes targeted by miR-17 were measured, and averaged to provide a pharmacodynamic signature score (PD Signature Score), represented as Log2 fold-change (Log2FC) relative to mock-transfection. […] “P<0.05” indicates a p-value of less than 0.05, as calculated by one-way ANOVA. “NS” indicates a change that is not statistically significant.

[3] = In vitro metabolic stability in mouse liver lysate; type: in vitro ADME; details: 24-hour incubation of RG4326
Method: Metabolic stability was evaluated by incubating each anti-miR-17 compound in a mouse liver lysate. After 24 hours, the percentage of intact compound remaining is calculated. Compounds that are not stable following a 24-hour incubation are potentially not stable in vivo.
as §1

[4] = tested on: 18 pro-inflammatory genes; test: Ex vivo kidney slice assay; type: cell-based; details: rat kidney slice; 24-hour incubation; relative to PBS
Method: In in vitro assays, the potential for toxicity was assessed using a biochemical fluorescent binding assay (FBA) and a liver or kidney slice assay. The FBA is performed by incubating a fluorescent dye with each compound, and immediately measuring fluorescence. Highly fluorescent compounds have the potential to produce toxicity in vivo. The liver or kidney slice assay is performed by incubating a slice of tissue from a core liver sample isolated from rat. Following a 24-hour incubation, RNA is extracted from the tissue slice, and the expression levels of 18 pro-inflammatory genes are measured. An induction in pro-inflammatory gene expression indicates a potential for pro-inflammatory effects in vivo.
Ex vivo assays were performed with liver or kidney tissue slices. The liver or kidney slice assay is performed by incubating a slice of tissue from a core liver or kidney sample isolated from rat. Following a 24-hour incubation, RNA is extracted from the tissue slice, and the expression levels of 18 pro-inflammatory genes, including IFIT, are measured. A log 2 transformation of the fold change (Log2-FC) relative to PBS treatment was performed. An induction in pro-inflammatory gene expression indicates a potential for pro-inflammatory effects in vivo.

miR-106b = miR-106b luciferase reporter assay in HeLa cells; type: cell-based; details: anti-miR-17 at 100 nm
Method: (§2) Additional in vitro assays were conducted to further explore the potency of RG4326. A luciferase reporter assay was used to test the ability of RG4326 to inhibit the miR-17 family members miR-17, miR-20a, miR-93, and miR-106b. A luciferase reporter plasmid for each of miR-20a, miR-93, and miR-106b was constructed, with a fully complementary microRNA binding site in the 3′-UTR of the luciferase gene. HeLa cells were transfected with the microRNA mimic and its cognate luciferase reporter, followed by transfection with anti-miR-17 at a dose of 100 nm. […] As RG4326 is 100% complementary to the other miR-17 family members not tested, miR-20b and […], it is expected to inhibit these microRNAs as well.

miR-17 = miR-17 luciferase reporter assay in HeLa cells; type: cell-based; details: for Luciferase Fold Derepression: mean
Method: In vitro potency was evaluated using a luciferase reporter assay. A luciferase reporter plasmid for miR-17, with […] in the 3′-UTR of the luciferase gene. Compounds of longer lengths were selected if their maximum inhibition was greater than that of the tool anti-miR-17 compound. As shorter compounds, such as 9-mers, are typically not maximally active in the same assay conditions used for longer compounds, shorter compounds were selected based on maximum inhibition relative to appropriate control compounds. In this way, compounds that are diverse in both length and chemical composition were included in further testing.
One assay employed was the luciferase assay. […] Accordingly, the luciferase assay transfection conditions were optimized for short anti-miR-17 compounds, so that the inhibitory activity of the compounds could be measured.
The luciferase reporter plasmid for miR-17 contained a fully complementary miR-17 binding site in the 3′-UTR of the luciferase gene. HeLa cells were transfected with the microRNA mimic and its cognate luciferase reporter, followed by transfection with anti-miR-17 at doses of […], 3, 10, 30, 100, and 300 nM. At the end of the 24-hour transfection period, luciferase activity was measured. As shown in Table 2-1, RG4047, while not as potent as RG4326, inhibited miR-17 activity in a dose dependent manner. SD indicates standard deviation.
as §2

[5] = Metabolic stability in liver homogenate, summary over species; type: in vitro ADME; details: mouse, monkey or human liver homogenate
Method: as §1

[6] = DBA-PKD, Collecting Ducts, PKD kidney
[7] = DBA-WT, Collecting Ducts, Normal kidney
[8] = IMCD3, Collecting Ducts, Normal kidney
[9] = LTL-PKD, Proximal Tubules, PKD kidney
[10] = LTL-WT, Proximal Tubules, Normal kidney
[11] = M1, Collecting Ducts, Normal kidney
[12] = MDCT, Distal Tubules, Normal kidney
[13] = 0.001 nM anti-miR-17, 24-hour transfection
[14] = 3 nM anti-miR-17, 24-hour transfection
[15] = 10 nM anti-miR-17, 24-hour transfection
[16] = 30 nM anti-miR-17, 24-hour transfection
[17] = 100 nM anti-miR-17, 24-hour transfection
[18] = 300 nM anti-miR-17, 24-hour transfection

| Compound | PD-Signature Score (Log2FC @ 30 nM) (miR-17 targets; [6]) | PD-Signature Score (Log2FC @ 30 nM) (miR-17 targets; [7]) | PD-Signature Score (Log2FC @ 30 nM) (miR-17 targets; [8]) | PD-Signature Score (Log2FC @ 30 nM) (miR-17 targets; [9]) | PD-Signature Score (Log2FC @ 30 nM) (miR-17 targets; [10]) | PD-Signature Score (Log2FC @ 30 nM) (miR-17 targets; [11]) | PD-Signature Score (Log2FC @ 30 nM) (miR-17 targets; [12]) | Luciferase Fold Derepression (miR-17; [13]) | Luciferase Fold Derepression (miR-17; [14]) | Luciferase Fold Derepression (miR-17; [15]) | Luciferase Fold Derepression (miR-17; [16]) | Luciferase Fold Derepression (miR-17; [17]) | Luciferase Fold Derepression (miR-17; [18]) | other results |
| --- | --- | --- | --- | --- | --- | --- | --- | --- | --- | --- | --- | --- | --- | --- |
| 5′-CTGCACTGTAAGCACTTTG-3′ (all phosphorothioate, sugars by position and methylation of C not given here; DNA, 2'-MOE and S-cEt sugars) [Tool anti-miR-17, reference compound] | – | – | – | – | – | – | – | – | – | – | – | – | – | BUN and expression of kidney injury mRNA biomarkers Kim1 and Nga1 (in words) (Pkd2-KO mice): significantly reduced; serum creatinine level and cyst index (in words) (Pkd2-KO mice): trend toward reduced; kidney-to-body weight ratio reduced relative to control treatment (Pkd2-KO mice; p=0.017): 17% |
| COC1C(OP(=O)(S)OC[C@H]2O[C@@H](n3cnc4c(N)ncnc43)C(F)C2OP(=O)(S)OC[C@H]2O[C@@H](n3ccc(N)nc3=O)C(F)C2OP(=O)(S)OC[C@H]2O[C@@H](n3ccc(=O)[nH]c3=O)C(F)C2OP(=O)(S)OC[C@H]2O[C@@H](n3ccc(=O)[nH]c3=O)C(OC)C2OP(=O)(S)OC[C@]23O[C@@H](n4ccc(=O)[nH]c4=O)C(O[C@H]2C)C3OP(=O)(S)OC[C@]23O[C@@H](n4cnc5c(=O)[nH]c(N)nc54)C(O[C@H]2C)C3O)[C@@H](COP(=O)(S)OC2C3O[C@@H](C)[C@]2(COP(=O)(S)OC2C4O[C@@H](C)[C@]2(CO)O[C@H]4n2cnc4c(N)ncnc42)O[C@H]3n2cnc3c(=O)[nH]c(N)nc32)O[C@H]1n1ccc(N)nc1=O (stereo in doubt) [RG4326, ASGSCMAFCFUFUMUSGS] | 0.52 ± 0.06; p < 0.05 Log2FC | 0.40 ± 0.09; p < 0.05 Log2FC | 0.57 ± 0.06; p < 0.05 Log2FC | 0.39 ± 0.01; p < 0.05 Log2FC | 0.35 ± 0.02; p < 0.05 Log2FC | 0.18 ± 0.18; p < 0.05 Log2FC | 0.10 ± 0.01; p < 0.05 Log2FC | 1 | 5.3 | 10.4 | 14.1 | 13.9 | 11.7 | Ex Vivo Liver Lysate (% Analyte), Human [1]: 98.7%; Ex Vivo Liver Lysate (% Analyte), Monkey [2]: 95.9%; Ex Vivo Liver Lysate (% Analyte), Mouse [3]: 99.1%; Ex Vivo Kidney Slices Assay Pro-Inflammatory Signature Score (Log2-FC) [4]: −0.30 ± 0.22 Log2-FC; Mean luciferase fold derepression, miR-106b (miR-106b): 17.7; Mean luciferase fold derepression, miR-17 (miR-17; anti-miR-17 at 100 nm): 13.1; parent compound remaining intact after the 24-hour incubation [5]: over 95% |
| ASCSAMAFUFGFCMASCS [RG5124, reference compound] | −0.07 ± 0.02; ns Log2FC | 0.10 ± 0.05; ns Log2FC | −0.03 ± 0.05; ns Log2FC | −0.03 ± 0.04; ns Log2FC | −0.04 ± 0.02; ns Log2FC | −0.08 ± 0.02; ns Log2FC | 0.03 ± 0.01; ns Log2FC | 1 | 1.2 | 2.6 | 1 | 0.7 | 1 | – |
